Our source for the TGI values is PubChem BioAssay (NCI).

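Method: 48-hour compound exposure of cells in 96-well plates, five concentrations, linear interpolation of endpoints. The concentration for full growth arrest is given as TGI.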

Experiment in all cases: DTP human tumour cell line panel, 48 h
The test system of test [1] is SK-MEL-5 melanoma.
The subject of test [2] is SN12C renal.
For test [3], the system named is HCT-15 colon.
Test [4] has as its system SF-539 CNS.
Test [5] deals with SNB-19 CNS.
In test [6] the test system is CAKI-1 renal.
Test [7] relates to SF-295 CNS.
Test [8] relates to HCC-2998 colon.
The test system of test [9] is OVCAR-3 ovarian.
Test [10] relates to UO-31 renal.
The subject of test [11] is HOP-62 NSCLC.
Test [12] has as its system NCI-H226 lung.
For test [13], the system named is EKVX NSCLC.

As to `O=C(O)CN1CCN(CC(=O)O)CCN(CC(=O)O)CCN(CC(=O)O)CC1`, the TGI in [1], in [2], in [3], in [4], in test [5] and in test [6] was greater than 100 µM each time. Moreover, the TGI in [7], in test [8], in test [9], in [10], in [11] and in test [12] was greater than 100 µM throughout. The molecule also came in with a TGI in test [13] greater than 100 µM.
In the case of `CCN(CC)CCS(=O)c1c2cc(OC)ccc2nc2ccc(OC)cc12` (stereo not drawn), the TGI came out at 32.3 µM in test [1]; 9.64 µM in test [2]; 16.6 µM in test [3]; 6 µM in test [4]; 72 µM in test [5]; 23.9 µM in test [6]. The TGI in [7] worked out at 44.2 µM; in test [8], 40.7 µM; in test [9], 15.6 µM; in [10], 5.43 µM; in test [11], 44.8 µM; in test [12], 39.5 µM. Besides, the TGI in [13] turned out to be 30.8 µM.
Turning to `N#CS/C(Cl)=C(/C(Cl)=C(Cl)Cl)[N+](=O)[O-]`, the TGI in [1] was greater than 100 µM; in test [2], greater than 100 µM; in test [3] it was 45.9 µM; in test [4], greater than 100 µM; in [5] it was 29.3 µM; in [6], greater than 100 µM. Also, the TGI in test [7] was greater than 100 µM; in test [8], greater than 100 µM; in test [9] it was 48.9 µM; in [10], greater than 100 µM; in test [11] it was greater than 100 µM; in test [12], greater than 100 µM. Further, the TGI in test [13] is greater than 100 µM.
Regarding `O=S1(=O)CCN(Cc2ccccc2)/C1=N\S(=O)(=O)c1ccc(Cl)cc1`, the TGI was 41.9 µM in test [1]; 33.3 µM in [2]; 37 µM in test [3]; 36.1 µM in test [4]; greater than 100 µM in [5]; 33.2 µM in test [6]. Further, the TGI in test [7] is greater than 100 µM; in test [8] it was 34.5 µM; in test [9], 36.1 µM; in [10] it was 32.5 µM; in [11], greater than 100 µM; in [12], 34.4 µM. For the same molecule, the TGI in test [13] is 28.5 µM.
`COc1ccc(CN(CCc2c[nH]c3ccccc23)Cc2ccc(OC)cc2)cc1`: the TGI is 9.74 µM in test [1]; 2.24 µM in test [2]; greater than 100 µM in test [3]; 3.14 µM in [4]; greater than 44.4 µM in test [5]; greater than 30.2 µM in test [6]. Moreover, the TGI was found to be 5.78 µM in test [7]; 43.1 µM in test [8]; 9.25 µM in test [9]; 6.8 µM in test [10]; 11.3 µM in test [11]; 2.95 µM in test [12]. Besides, the TGI in test [13] is 20.5 µM.
Regarding `CC(C)(C)N1NC1C1NN1C(C)(C)C` (stereo not drawn), the TGI in test [1], in [2], in test [3], in test [4], in test [5] and in test [6] was greater than 100 µM throughout. Further, the TGI in test [7], in test [8], in test [9], in [10], in [11] and in [12] was greater than 100 µM in each case. The molecule also registered a TGI in [13] greater than 100 µM.
Turning to `CCCNC(=S)/N=C\c1c(O)c2ccccc2oc1=O`, the TGI in [1], in test [2], in test [3], in [4], in [5] and in test [6] was greater than 100 µM in each case. Besides, the TGI in test [7], in test [8], in test [9], in test [10], in test [11] and in [12] was greater than 100 µM each time. In [13], this molecule returned a TGI greater than 100 µM.
In the case of `CC(=O)CCC[C@@H](C)[C@@H]1O[C@H]([C@@]2(C)CCC(=O)O2)C[C@H]2C(CSc3ccccc3)C(=O)O[C@@H]12` (stereo partly drawn), the TGI is greater than 54.3 µM in test [1]; 34.2 µM in test [2]; 47.3 µM in test [3]; 36.9 µM in test [4]; greater than 100 µM in [5]; 27.2 µM in [6]. Besides, the TGI in [7] is greater than 66 µM; in test [8] it was 29.2 µM; in test [9], 27.8 µM; in test [10], 31.1 µM; in test [11], greater than 100 µM; in test [12], 37.5 µM. The TGI in test [13] came to 24.3 µM.
On to `c1ccc2sc(C3(N4CCCCC4)CCCC3)cc2c1`, for which the TGI in test [1] was determined as 22.9 µM; in test [2], 33.1 µM; in test [3], 21.6 µM; in test [4], 31.7 µM; in [5], 29.2 µM; in test [6], 38.4 µM. Further, the TGI in [7] stood at 23.7 µM; in test [8], 13.5 µM; in test [9], 21.8 µM; in test [10] it was 33.8 µM; in [11] it was 28.8 µM; in [12], 13.5 µM. Moreover, the TGI in test [13] amounted to 22 µM.
With `COc1cc2cc(C(=O)N3CC(CCl)c4ccc(NCCN)cc43)[nH]c2c(OC)c1OC` (stereo not drawn), the TGI in test [1] was 0.263 µM; in [2], 2.42 µM; in test [3], 4.33 µM; in test [4], 1.41 µM; in test [5], 3.13 µM; in [6], 1 µM. Moreover, the TGI in [7] stood at 1.44 µM; in test [8] it was 0.709 µM; in test [9], 0.579 µM; in test [10], 0.382 µM; in test [11], 0.645 µM; in test [12], 1.76 µM. This molecule had a TGI in test [13] of 6.1 µM.
In the case of `N=C1C(=N)c2ccccc2-c2ccccc21`, the TGI worked out at 1.53 µM in [1]; 2.49 µM in [2]; 2.99 µM in test [3]; 2.02 µM in [4]; 3.01 µM in test [5]; 3.08 µM in test [6]. For the same molecule, the TGI in test [7] was determined as 2.98 µM; in test [8], 3.47 µM; in [9] it was 1.41 µM; in test [10], 2.96 µM; in test [11], 3.04 µM; in [12], 3.57 µM. For the same molecule, in [13], the TGI stood at 3.62 µM.
On to `CN(C)CCO/N=C1/C=C2CC[C@H]3[C@@H]4CC[C@H](O)[C@@]4(C)CC[C@@H]3[C@@]2(C)CC1`, for which the TGI in test [1] was 34.3 µM; in test [2], 32.8 µM; in [3], 47.7 µM; in test [4], 13.2 µM; in test [5], greater than 100 µM; in test [6], greater than 66.8 µM. Also, the TGI in test [7] was 32.4 µM; in test [8], 28.1 µM; in test [9], 61 µM; in [10] it was 28.2 µM; in test [11], greater than 87.4 µM; in [12], 8.87 µM. In [13], this molecule registered a TGI of 68.6 µM.
As for `O=C1CCC2SC1CCC2=O`, the TGI in test [1], in [2], in test [3], in test [4], in test [5] and in test [6] was greater than 100 µM each time. Moreover, the TGI in test [7], in test [8], in [9], in test [10], in test [11] and in test [12] was greater than 100 µM in each case. In test [13], this molecule gave a TGI greater than 100 µM.
As for `Cc1ccccc1N(C)S(=O)(=O)c1ccccc1[N+](=O)[O-]`, the TGI in [1] is 30.7 µM; in [2] it was greater than 100 µM; in [3], greater than 100 µM; in [4], greater than 100 µM; in test [5], greater than 100 µM; in test [6], greater than 100 µM. Also, the TGI in [7], in test [8], in [9], in test [10], in [11] and in test [12] was greater than 100 µM in each case. The molecule also returned a TGI in test [13] greater than 100 µM.
With `C=C1C(=O)C23CC1C[C@H](OC(C)=O)C2C1(C)C(OC(C)=O)C[C@H](O)C(C)(C)[C@H]1C(O)[C@@H]3OC(C)=O` (stereo partly drawn), the TGI stood at 27.9 µM in test [1]; 20.7 µM in test [2]; 25.7 µM in test [3]; 7.54 µM in [4]; 44.3 µM in test [5]; 30.7 µM in [6]. For the same molecule, the TGI in test [7] was greater than 57.6 µM; in test [8], 36.9 µM; in [9] it was 19.1 µM; in test [10], 31.2 µM; in [11], 33.8 µM; in [12], 45 µM. Moreover, the TGI in test [13] is 29.1 µM.
As to `COc1cc(-c2coc3c(OC)c(OC4OC(CO)C(O)C(O)C4O)c(OC)cc3c2=O)cc(OC)c1C` (stereo not drawn), the TGI in test [1] is 27.8 µM; in test [2], 51.8 µM; in test [3], 19.6 µM; in test [4], greater than 29 µM; in test [5], 28.6 µM; in test [6] it was 31 µM. In addition, the TGI was 28.5 µM in [7]; 18.6 µM in test [8]; greater than 100 µM in test [9]; 21 µM in [10]; 44.1 µM in [11]; 68.1 µM in test [12]. Moreover, the TGI in test [13] stood at 27.3 µM.
Take `CC1NC(/C(=C/c2ccccc2O)NC(=O)c2ccccc2)OC1=O` (stereo not drawn): the TGI was greater than 50 µM in test [1]; greater than 50 µM in test [2]; greater than 50 µM in test [3]; 48 µM in test [4]; greater than 50 µM in [5]; greater than 50 µM in [6]. Besides, the TGI in test [7], in [8], in test [9], in test [10], in test [11] and in test [12] was greater than 50 µM throughout. In test [13], this molecule registered a TGI greater than 50 µM.
In the case of `CC(C)/C=N\n1c(N)c(C#N)c(C#N)c1C(C)C`, the TGI in test [1] is 34.1 µM; in test [2] it was greater than 100 µM; in test [3] it was greater than 100 µM; in test [4], 52.5 µM; in test [5], greater than 100 µM; in [6], greater than 100 µM. Further, the TGI is 73.7 µM in test [7]; 36.4 µM in test [8]; 62.1 µM in test [9]; 64.2 µM in test [10]; greater than 100 µM in test [11]; 64.6 µM in test [12]. In addition, the TGI in test [13] was determined as 72.8 µM.
On to `CC1(C)C(=O)N=C(N)N1C(=O)OCc1ccccc1`, for which the TGI in [1], in [2], in test [3], in test [4], in test [5] and in test [6] was greater than 100 µM in each case. The TGI in test [7], in test [8], in test [9], in test [10], in test [11] and in test [12] was greater than 100 µM in each case. The TGI in test [13] is greater than 100 µM.
`CCOC(=O)CCC(NC(=O)c1ccc(Nc2nc3cc(C(F)(F)F)ccc3nc2-c2ccccc2)cc1)C(=O)OCC` (stereo not drawn): the TGI in [1], in [2], in test [3], in test [4], in test [5] and in test [6] was greater than 100 µM each time. The TGI in test [7], in [8], in test [9], in [10], in [11] and in test [12] was greater than 100 µM each time. Also, the TGI in test [13] is greater than 100 µM.
For the molecule `CC(=O)Nc1ccc2c(C)c3c4ccccc4n(C)c3nc2n1`, the TGI in test [1] was 21.9 µM; in [2], 43.3 µM; in test [3] it was 48.6 µM; in [4], 77.6 µM; in test [5] it was greater than 100 µM; in [6], greater than 100 µM. For the same molecule, the TGI is 53.4 µM in test [7]; 30.9 µM in [8]; 70.1 µM in test [9]; 32.3 µM in test [10]; 94.8 µM in test [11]; greater than 100 µM in [12]. This molecule came in with a TGI in [13] greater than 100 µM.

As usually defined, the TGI is the concentration giving total growth inhibition.
